Source: PMC7219108, “Pisum sativum Defensin 1 Eradicates Mouse Metastatic Lung Nodules from B16F10 Melanoma Cells” (International Journal of Molecular Sciences, 2020)

Tested on: B16F10 melanoma cells in C57BL/6 mice
Test: Experimental B16F10 melanoma lung metastasis, nodule count
Assay type: in vivo
Settings: for Lung nodules: day 21, mean ± SEM
Description: Figure 6 Protective effects of Psd1 on a model of experimental lung metastasis in vivo. B16F10 mouse melanoma tumors were established by intravenous injection of 2.5 × 10^5 B16F10 cells into C57BL/6 mice. (A) After 21 days, mice from each experimental group were sacrificed, and the number of visible lung metastatic nodules was quantified. Treatment of the animals inoculated with melanoma cells plus Psd1 caused a dose-dependent reduction in the number of lung metastases. Black lines represent the mean ± SEM of two independent experiments analyzed by one-way ANOVA and Bonferroni’s multiple comparison test. **** p < 0.0001 B16F10 vs. phosphate buffer solution (PBS); **** p < 0.0001 B16F10 vs. Psd1 1 mg/kg; **** p < 0.0001 B16F10 vs. just Psd1 1 mg/kg (without B16F10 cells); *** p < 0.001 B16F10 vs. Psd1 3 mg/kg; * p < 0.05 B16F10 vs. Psd1 0.5 mg/kg. (B) Representative images of lung metastatic nodules from animals that received just PBS or B16F10 cells alone or together with 0.1 mg/kg or 1 mg/kg Psd1. Bar = 2 mm. (C) Animal weights were acquired every two days. Weight variation was calculated as (weight on that day (weight of the first day × 100 − 100)). Only the days with higher weight differences between animals injected with only B16F10 cells and those that received cells plus Psd1 or PBS alone are represented. All of the values represent the mean ± SEM of two independent experiments analyzed by two-way ANOVA. *** p < 0.001 B16F10 vs. PBS at […]; *** p < 0.001 B16F10 vs. Psd1 0.1 mg/kg at 9 weeks; ** p < 0.01 B16F10 vs. Psd1 0.1 mg/kg at 13 weeks; *** p < 0.001 B16F10 vs. Psd1 1 mg/kg at 9 and 13 weeks; ** p < 0.01 B16F10 vs. Psd1 1 mg/kg at 17 weeks; * p < 0.05 B16F10 vs. Psd1 1 mg/kg at 7 weeks; *** p < 0.001 B16F10 vs. Psd1 3 mg/kg at 7 and 9 weeks.
Eight-week-old C57BL/6 female mice (CEMIB, Campinas–Brasil) weighing approximately 20 g were individually marked and separated according to their experimental groups. These animals were kept in cages 20 cm × 35 cm × 15 cm (width × length × height) with free access to water and food under day and night cycles that lasted twelve hours with a controlled temperature (20–25 °C) in our own facilities. This study was approved by the Ethics Committee on the Use of Animals of Health Science Centre of the Federal University of Rio de Janeiro, Brazil (CEUA/CCS/UFRJ, CONCEA registered number 01200.001568/2013.87, approved protocol IBCCF 163 at 28 August 2012). All animals received humane care in compliance with the “Principles of Laboratory Animal Care” formulated by the National Society for Medical Research and the “Guide for the Care and Use of Laboratory Animals” prepared by the National Academy of Sciences, USA, and the National Council for Controlling Animal Experimentation, Ministry of Science, Technology and Innovation (CONCEA/MCTI), Brazil.
Mice were injected via the lateral tail vein with 100 µL of PBS only (137 mM NaCl, 2.7 mM KCl, 10 mM Na2HPO4, 2 mM KH2PO4, pH 7.4) (n = 17) or 100 µL of B16F10 cells (2.5 × 10^5 cells/animal suspended in DMEM) (n = 15). Other groups of animals were intravenously co-injected with a freshly prepared, in order to avoid B16F10 cells death, mix of B16F10 cells plus 0.1 mg/kg (n = 8), 0.5 mg/kg (n = 8), 1 mg/kg (n = 17), or 3 mg/kg Psd1 (n = 7).
Another group of animals received 1 mg/kg of Psd1 only (n = 9) to evaluate Psd1 toxicity. Twenty-one days later, the animals were anaesthetized and sacrificed, and the black lung melanoma nodules were counted and measured under a dissecting microscope (Zeiss AxioPhot fluorescence microscope (Carl-Zeiss, Oberkochen, Germany)).

For “Psd1: 46-amino acid residue plant defensin isolated from pea seeds, expressed in Pichia pastoris (PDB 1JKZ) (KTCEHLADTYRGVCFTNASCDDHCKNKAHLISGTCHNWKCFCTQNC)”, the “Number of lung nodules, result in words” value (0.1 mg/kg i.v., day 21) was “not effective in reducing the number of nodules”, the “Size of lung nodules, result in words” value (0.1 mg/kg i.v., day 21, data not shown) was “effective in reducing their size” and the Lung nodules (0.5 mg/kg i.v. co-injected with B16F10 cells, B16F10 only average 43 nodules, p < 0.05) was 10.2 ± 2.6 nodules. For the same substance, the “Decrease of number of pulmonary nodules” value (0.5 mg/kg i.v., day 21) was 75%, the “Lung nodules in animals without B16F10 cells” value (1.0 mg/kg Psd1 alone, i.v., day 21) was “did not present lung nodules” and the Lung nodules (1.0 mg/kg i.v. co-injected with B16F10 cells, p < 0.0001) was 4.82 ± 1.88 nodules. For the same substance, the “Decrease of number of pulmonary nodules” value (1.0 mg/kg i.v., day 21) was 88%, the Lung nodules (3.0 mg/kg i.v. co-injected with B16F10 cells, p < 0.001) was 0.14 ± 0.14 nodules and the “Tumor development, result in words” value (3.0 mg/kg i.v., day 21) was “completely abolished tumor development”. For the same substance, the “Lung metastasis nodules, result in words” value (i.v., above 0.5 mg/kg) was “completely inhibited the formation of B16F10 lung metastasis nodules” and the “Lowest dose with significant reduction of lung metastasis colonization” value (i.v., day 21, dose-dependent) was 0.5 mg/kg.
